The values below come from patent US7410971B2, “1,2-di(cyclic)substituted benzene compounds” (Eisai R&D Management Co., Ltd., priority 2003, dated 2008).

pIC50: −log10 of the molar value.

One test has as its system Jurkat cells. Briefly: Jurkat cell adhesion system (adhesion to immobilized human fibronectin, PMA-stimulated). The settings on record: concentration inhibiting by 50% the PMA-stimulated increase in number of adhered Jurkat cells on human fibronectin. The format is cell-based. As to the method:
Evaluation of Compounds in Jurkat Cell Adhesion System
<Immobilization of Human Fibronectin in 96-Well Plate>
Human fibronectin (Becton Dickinson Biosciences) was diluted with phosphate-buffered saline (hereinafter abbreviated as PBS; Sigma) to 0.1-0.01 μg/ml, and the diluted solution was added to a 96-well plate (Becton Dickinson) at 50μ/well, and allowed to stand overnight at 4° C. On the following day, the supernatant was removed from the plate, and then PBS containing 1% bovine serum albumin (hereinafter abbreviated as BSA; Sigma) was added thereto at 100 μl/well and incubation was performed at 37° C. for 2 hours in a CO2 incubator (Hirasawa).
The supernatant was removed from each plate and Jurkat cells suspended in RPMI-1640 (Sigma) containing 1 mg/ml BSA were added at 80 μl/well for 2.5×10^5 cells/well. The compound diluted to different concentrations with RPMI-1640 containing 1 mg/ml BSA was immediately added at 10 μl/well, and then 100 nM phorbol myristate acetate (hereinafter abbreviated as PMA; Sigma) in RPMI-1640 containing 1 mg/ml BSA was added at 10 μl/well and the plate was incubated in a CO2 incubator at 37° C. for 45-60 minutes. The supernatant was removed from the plate and each well was washed several times with 100 μl/well of RPMI-1640, after which 50 mM citrate buffer (pH 5.0) containing 3.75 mM p-nitrophenol-N-acetyl-β-D-glucosaminide (Sigma) and 0.25% Triton X-100 (Sigma) were added at 60 μl/well, and the mixture was placed in a CO2 incubator and incubated at 37° C. for 45 minutes. After incubation, 50 mM glycine buffer (pH 10.4) containing 5 mM EDTA was added at 90 μl/well, and the absorbance at 405 nm was measured with an EL340 Automated Microplate Reader (BIO-TEK) to determine the adhered cell count. The concentration of each compound which inhibited the increase in the number of adhered cells by the PMA-stimulation by 50% was recorded as the IC50 (μM).

In test [1] the test system is human peripheral blood neutrophils. The experiment in a line: Human peripheral blood neutrophil adhesion system (adhesion to immobilized HUVEC, PMA-stimulated). Format: cell-based. Particulars: concentration inhibiting by 50% the PMA-stimulated increase in number of adhered BCECF-AM labeled neutrophils on HUVEC immobilized plate. The protocol:
Evaluation of Compounds in Human Peripheral Blood Neutrophil Adhesion System
<Preparation of Human Peripheral Blood Neutrophils>
To a plastic centrifugation tube containing 100 units of heparin sodium (Shimizu Pharmaceutical) was added 25 ml of fresh blood sampled from a healthy human. After adding and mixing therewith 8 ml of physiological saline (Otsuka Pharmaceutical) containing 6% Dextran (Nacalai), the mixture was allowed to stand room temperature for 45 minutes for sedimentation of the erythrocytes. The resultant supernatant was transferred to another plastic centrifugation tube and combined with an equivalent volume of phosphate-buffered saline (hereinafter abbreviated as PBS; Sigma), and then centrifuged at 1600 rpm for 7 minutes at room temperature. The obtained hematocyte fraction was suspended in 4 ml of PBS, and the suspension was superposed on 4 ml of Ficoll-Paque™ PLUS (Amersham Biosciences). The resultant bilayer liquid was centrifuged at 2000 rpm for 30 minutes at room temperature, after which the supernatant was removed and the precipitate was suspended in 10 ml of PBS and centrifuged at 1200 rpm for 7 minutes, and the supernatant was removed. The resulting precipitate was suspended in 0.5 ml of PBS again, and then 10 ml of distilled water (Otsuka Pharmaceutical) was added, 0.5 ml of an aqueous solution containing 3 M NaCl was immediately added to restore isotonicity, the mixture was centrifuged at 1200 rpm for 7 minutes, and the obtained precipitate was suspended in PBS containing 1 mg/ml bovine serum albumin (hereinafter abbreviated as BSA; Sigma) again and stored in ice until being used for the experiment.
<Fluorescent Labeling of Human Peripheral Blood Neutrophils>
The obtained neutrophils were suspended in PBS containing 1 mg/ml BSA at 2×10^7 cells/ml. BCECF-AM (Dojin) was added to a final concentration of 5 μM, and the mixture was incubated at 37° C. for 45 minutes. It was then rinsed twice with PBS containing 1 mg/ml BSA by centrifugation, suspended again in PBS containing 1 mg/ml BSA at 5×10^7 cells/ml, and stored in ice until use.
<Preparation of HUVEC Immobilized Plate>
Human umbilical vein endothelial cells (hereinafter abbreviated as HUVEC) were suspended in MCDB131 medium (Chlorella Industries) containing 10% fetal calf serum and 30 μg/ml endothelial cell growth supplement (Becton Dickinson Bioscience). The suspension was added at 7.5×10^3 cells/well to a 96-well plate (Iwaki) immobilized with type I collagen, and cultured for 3 days in a CO2 incubator (Hirasawa). Upon confirming confluency of the cells, the supernatant was discarded, the plate was rinsed twice with PBS, and then PBS containing 0.1% glutaraldehyde (Kanto Kagaku) was added at 100 μl/well and the HUVECs were immobilized for 5 minutes. The supernatant was discarded and the plate was washed twice with PBS, and then PBS was added at 100 μl/well and the mixture was stored at 4° C. until use.
To 6.5 ml of RPMI-1640 medium (Sigma) containing 1 mg/ml of BSA were added 0.5 ml of a suspension of BCECF-AM labeled neutrophils at 5×10^7/ml stored in ice, which was mixed, and the mixture was added at 80 μl/well to a HUVEC immobilized plate. […] The supernatant was removed from the plate, which was then washed several times with RPMI-1640 at 100 μl/well, and then PBS containing 0.1% NP-40 (Calbiochem) was added thereto at 100 μl/well and the fluorescent intensity was measured with an ARVO™SX 1420 multi label counter (Wallac) to determine the number of adhered cells. […]

Test [2] concerns colon-infiltrating neutrophils (myeloperoxidase enzyme activity). The experiment in a line: Oxazolone-induced colon neutrophil infiltration model. Particulars: Mus musculus, po, 30 mg/kg orally 30 minutes prior to intrarectal oxazolone, colon myeloperoxidase activity 4 hours after, vs oxazolone control group, read-out: Inhibitory rate (%). Format: in vivo, Balb/c mice. As to the method: Evaluation of Compounds in Oxazolone-Induced Colon Neutrophil Infiltration Model
<Sensitization with Oxazolone>
Five- to six-week-old male Balb/c mice (Charles River Japan) were shaven at the abdomen to an approximately 2 cm square area. A 100% ethanol solution containing 3% 4-ethoxymethylene-2-phenyl-2-oxazolin-5-one (hereinafter referred to as “oxazolone”; Sigma) was applied at 150 μl onto the abdomen of each mouse.
<Preparation of Emulsion Containing Oxazolone>
Distilled water (Otsuka Pharmaceutical) was added in an equivalent volume to 100% peanut oil (Kanto Kagaku) containing 1% oxazolone, and the components were vigorously mixed with a glass syringe (Top Co.), to prepare an emulsion containing 0.5% oxazolone.
<Induction with Oxazolone>
The mice were fasted on the 3rd day after oxazolone sensitization, and were injected with 100 μl of the emulsion containing 0.5% oxazolone prepared in the way described above intrarectally at a site approximately 3 cm from the anus under ether anesthesia on the 4th day.
<Colon-Infiltrating Neutrophil Assay>
Each compound was suspended or dissolved in an aqueous solution containing 0.5% methyl cellulose (Wako), and orally administered at 30 mg/kg 30 minutes prior to the intrarectal injection of oxazolone emulsion. Four hours after the intrarectal injection of oxazolone, mice were sacrificed by cervical dislocation, and colons were extirpated, dissected in the longitudinal direction, washed with physiological saline, and transferred to ice-cooled plastic centrifugation tubes. After adding 1 ml of 50 mM potassium phosphate buffer (hereinafter abbreviated as KPB) (pH 6.0) to the tube, and the tissue were homogenized with PHYSCOTRON (Microtec Nition Co., Ltd.), 2 ml of 50 mM KPB (pH 6.0) was added and the mixture was centrifuged at 3000 rpm, 4° C. for 10 minutes and the supernatant was removed. To the resultant precipitate was added 1 ml of 50 mM KPB (pH 6.0) containing 0.5% hexadecyltrimethyl-ammonium bromide (Sigma), and freeze-thawed 3 to 5 times using liquid nitrogen and hot water, centrifuged at 3000 rpm, 4° C. for 10 minutes to yield a supernatant. The myeloperoxidase enzyme activity in the supernatant was assayed in the following manner. Specifically, to 10 μl of the obtained supernatant was added 200 μl of 50 mM KPB (pH6.0) containing 0.017% o-dianisidine (Sigma) and 0.0005% hydrogen peroxide (Wako), incubated at 37° C., and the change in absorbance at 450 nm was continuously measured for 1 minute using an EL340 Automated Microplate Reader (BIO-TEK) in kinetic mode. The units were the rate of change in absorbance per minute (mO.D./min.). With regard to the effect of each compound, the inhibitory rate (%) with respect to the oxazolone control group, i.e. the oxazolone-injected/compound-free group, was shown in the table 3.

The subject of a further test is DSS-induced colitis. Briefly: DSS-induced colitis model. Format: in vivo, Balb/c mice. Particulars: 30 mg/kg orally once a day for 5-7 successive days; 1-3% DSS in water for 5-7 days. From the text:
Evaluation of Compounds in DSS-Induced Colitis Model
A 1-3% solution of dextran sulfate sodium (hereinafter abbreviated as DSS; ICN) in purified water (Otsuka Pharmaceutical) was fed freely to 6- to 7-week-old male Balb/c mice (Charles River Japan) for 5-7 days to induce colitis. Disease Activity Index (hereinafter abbreviated as DAI) scored based on fecal hardness, blood content in feces and body weight change, the number of neutrophils infiltrating the colon and the length of the colon were used as indexes to evaluate compounds. Each compound was suspended or dissolved in an aqueous solution containing 0.5% methyl cellulose (Wako), and orally administered at 30 mg/kg once a day, for 5-7 successive days.

In the case of `CCCCN1CCN(c2ccc(N3CCC(OC)CC3)cc2C2=CCC(C(C)(C)C)CC2)CC1.Cl` (racemic) [Example 7, 1-Butyl-4-[2-(4-t-butylcyclohex-1-enyl)-4-(4-methoxypiperidin-1-yl)phenyl]piperazine hydrochloride], the pIC50 with Jurkat cells was 5.60; in test [1], 5.01. Also, the inhibition in vivo at 30 mg/kg in test [2] was found to be 37%.

Regarding `CCCCN1CCN(c2ccccc2C2CC(C)(C)CC(C)(C)C2)CC1.Cl` [Example 8, 1-Butyl-4-[2-(3,3,5,5-tetramethylcyclohexyl)phenyl]piperazine hydrochloride], the pIC50 in the test on Jurkat cells is 5.66; in test [1] it was 4.65. Moreover, the inhibition in vivo at 30 mg/kg in test [2] was determined as 22%.

In turn, `CCNC(=O)CN1CCN(c2ccccc2C2CCC(C(C)(C)C)CC2)CC1.Cl` (centres unmarked) [Example 10, 2-{4-[2-(4-t-Butylcyclohexyl)phenyl]piperazin-1-yl}-N-ethylacetamide hydrochloride] gave a negative logarithm of the IC50 (pIC50) in the test on Jurkat cells of 5.33.

Take `CCCCN1CCN(c2ccccc2C2CCCCC2)CC1.Cl` [Example 14, 1-Butyl-4-(2-cyclohexylphenyl)piperazine hydrochloride]: the pIC50 in the test on Jurkat cells is 5.31; in test [1] it was 4.71. In addition, in test [2], the inhibition in vivo at 30 mg/kg is 64%.

For `CCCCN1CCN(c2ccccc2C2CCC(C(C)(C)C)CC2)CC1.Cl` (centres unmarked) [Example 15, 1-Butyl-4-[2-(4-t-butylcyclohexyl)phenyl]piperazine hydrochloride], in the test with Jurkat cells, the pIC50 was 5.64. The “improvement in comparison with the DSS control group (DAI, number of neutrophils infiltrating the colon, length of the colon)” value in the test with DSS-induced colitis is reported as “particularly good improvement”.

On to `CCCCN1CCN(c2ccc(N3CCC(OC)CC3)cc2C2CC(C)(C)CC(C)(C)C2)CC1.Cl` [Example 32, 1-Butyl-4-[4-(4-methoxypiperidin-1-yl)-2-(3,3,5,5-tetramethylcyclohexyl)phenyl]piperazine hydrochloride], for which, in test [2], the inhibition in vivo at 30 mg/kg worked out at 51%. Besides, the “improvement in comparison with the DSS control group (DAI, number of neutrophils infiltrating the colon, length of the colon)” value with DSS-induced colitis was “particularly good improvement”.
